Assay results taken from patent US11814391B2, “Macrocyclic compounds for the treatment of medical disorders” (Achillion Pharmaceuticals, Inc., priority 2018, dated 2023).

The compounds below were run against Human Factor D (Homo sapiens (Human), UniProt P00746) (assay: Human Factor D assay). Conditions: Human Factor D 80 nM, substrate Z-L-Lys-SBzl, A405; read-out: IC50 (Stars).
Assay type: biochemical
Experimental: The assay of Example 3 was used to determine the IC50's of the compounds. Other standard factor D inhibition assays are also available.
Human Factor D (purified from human serum, Complement Technology, Inc.) at 80 nM final concentration is incubated with test compound at various concentrations for 5 min at room temperature in 50 mM Tris, 1M NaCl, pH 7.5. A synthetic substrate Z-L-Lys-SBzI and DTNB (Ellman's reagent) are added to final concentrations of 100 μM each. Absorbance at 405 nm (A405) is recorded at 30 second intervals for 30 min using a microplate spectrophotometer. IC50 values are calculated by nonlinear regression of complement Factor D reaction rates as a function of test compound concentration.

Human Factor D, sequence (P00746 26-253): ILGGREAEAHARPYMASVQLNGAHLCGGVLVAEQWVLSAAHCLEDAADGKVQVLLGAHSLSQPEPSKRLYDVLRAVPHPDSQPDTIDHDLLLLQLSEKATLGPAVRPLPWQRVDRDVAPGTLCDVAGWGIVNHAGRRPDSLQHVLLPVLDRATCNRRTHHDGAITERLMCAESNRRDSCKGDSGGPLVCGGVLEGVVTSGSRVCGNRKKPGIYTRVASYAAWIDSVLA

Compound	IC50 [nM]
CC(=O)c1nn2c3c(cc(CCC(C)C)cc13)CCCCCCC(=O)NC[C@@]13C[C@@H](C(=O)Nc4nc(C(F)(F)F)ccc4C)N(C(=O)C2)[C@@H]1C3 [Compound 20, (4^1R,4^3S,4^5R)-1^3-acetyl-1^5-isopentyl-N-(3-methyl-6-(trifluoromethyl)pyridin-2-yl)-3,7-dioxo-1^1H-4^2,6-diaza-1(1,7)-indazola-4(2,5)-bicyclo[3.1.0]hexanacyclotridecaphane-4^3-carboxamide]	< 1000
CC(=O)c1nn2c3c(cc(C(C)C)cc13)CCCCCCC(=O)NC[C@@]13C[C@@H](C(=O)Nc4nc(C(F)(F)F)ccc4C)N(C(=O)C2)[C@@H]1C3 [Compound 21, (4^1R,4^3S,4^5R)-1^3-Acetyl-1^5-isopropyl-N-(3-methyl-6-(trifluoromethyl)pyridin-2-yl)-3,7-dioxo-1^1H-4^2,6-diaza-1(1,7)-indazola-4(2,5)-bicyclo[3.1.0]hexanacyclotridecaphane-4^3-carboxamide]	< 1000
CC(=O)c1nn2c3c(cc(-c4cnc5cc(C)nn5c4)cc13)CCCCC[C@@H](C)C(=O)NC[C@@]13C[C@@H](C(=O)Nc4nc(C(F)(F)F)ccc4C)N(C(=O)C2)[C@@H]1C3 [Compound 22, (4^1R,4^3S,4^5R,8R)-1^3-acetyl-8-methyl-N-(3-methyl-6-(trifluoromethyl)pyridin-2-yl)-15-(2-methylpyrazolo[1,5-a]pyrimidin-6-yl)-3,7-dioxo-1^1H-4^2,6-diaza-1(1,7)-indazola-4(2,5)-bicyclo[3.1.0]hexanacyclotridecaphane-4^3-carboxamide]	< 1000
CC(=O)c1nn2c3c(cc(-c4cnc(C)cn4)cc13)CCCCC[C@@H](C)C(=O)NC[C@@]13C[C@@H](C(=O)Nc4nc(C(F)(F)F)ccc4C)N(C(=O)C2)[C@@H]1C3 [Compound 23, (4^1R,4^3S,4^5R,8R)-1^3-acetyl-8-methyl-N-(3-methyl-6-(trifluoromethyl)pyridin-2-yl)-15-(5-methylpyrazin-2-yl)-3,7-dioxo-1^1H-4^2,6-diaza-1(1,7)-indazola-4(2,5)-bicyclo[3.1.0]hexanacyclotridecaphane-4^3-carboxamide]	< 1000
CC(=O)c1nn2c3c(cc(NCC(C)C)cc13)CCCCCCC(=O)NC[C@@]13C[C@@H](C(=O)Nc4nc(C(F)(F)F)ccc4C)N(C(=O)C2)[C@@H]1C3 [Compound 24, (4^1R,4^3S,4^5R)-1^3-acetyl-15-(isobutylamino)-N-(3-methyl-6-(trifluoromethyl)pyridin-2-yl)-3,7-dioxo-1^1H-4^2,6-diaza-1(1,7)-indazola-4(2,5)-bicyclo[3.1.0]hexanacyclotridecaphane-4^3-carboxamide]	< 1000
CC(=O)c1nn2c3c(cc(NC(C)C)cc13)CCCCCCC(=O)NC[C@@]13C[C@@H](C(=O)Nc4nc(C(F)(F)F)ccc4C)N(C(=O)C2)[C@@H]1C3 [Compound 25, (4^1R,4^3S,4^5R)-1^3-acetyl-1^5-(isopropylamino)-N-(3-methyl-6-(trifluoromethyl)pyridin-2-yl)-3,7-dioxo-1^1H-4^2,6-diaza-1(1,7)-indazola-4(2,5)-bicyclo[3.1.0]hexanacyclotridecaphane-4^3-carboxamide]	< 1000
CC(=O)c1nn2c3c(cc(-c4cnc(C)nc4)cc13)CCCCC(C)(C)CC(=O)NC[C@@]13C[C@@H](C(=O)Nc4nc(C(F)(F)F)ccc4C)N(C(=O)C2)[C@@H]1C3 [Compound 26, (4^1R,4^3S,4^5R)-1^3-acetyl-9,9-dimethyl-N-(3-methyl-6-(trifluoromethyl)pyridin-2-yl)-15-(2-methylpyrimidin-5-yl)-3,7-dioxo-1^1H-4^2,6-diaza-1(1,7)-indazola-4(2,5)-bicyclo[3.1.0]hexanacyclotridecaphane-4^3-carboxamide]	< 1000
CNc1cc2c3c(c1)c(C(C)=O)nn3CC(=O)N1[C@H](C(=O)Nc3nc(C(F)(F)F)ccc3C)C[C@@]3(CNC(=O)CCCCCC2)C[C@@H]13 [Compound 27, (4^1R,4^3S,4^5R)-1^3-acetyl-N-(3-methyl-6-(trifluoromethyl)pyridin-2-yl)-1^5-(methylamino)-3,7-dioxo-1^1H-4^2,6-diaza-1(1,7)-indazola-4(2,5)-bicyclo[3.1.0]hexanacyclotridecaphane-4^3-carboxamide]	< 1000
CC(=O)c1nn2c3c(cc(CC(C)C)cc13)CCCCCCC(=O)NC[C@@]13C[C@@H](C(=O)Nc4nc(C(F)(F)F)ccc4C)N(C(=O)C2)[C@@H]1C3 [Compound 28, (4^1R,4^3S,4^5R)-1^3-acetyl-1^5-isobutyl-N-(3-methyl-6-(trifluoromethyl)pyridin-2-yl)-3,7-dioxo-1^1H-4^2,6-diaza-1(1,7)-indazola-4(2,5)-bicyclo[3.1.0]hexanacyclotridecaphane-4^3-carboxamide]	< 1000
CC(=O)c1nn2c3c(cc(-c4cnc(C)nc4)cc13)CCCCCCC(=O)NC[C@@]13C[C@@H](C(=O)NC(C)[C@H]4CC4(Cl)Cl)N(C(=O)C2)[C@@H]1C3 (stereo partly drawn) [Compound 29, (4^1R,4^3S,4^5R)-1^3-acetyl-N-((R)-1-((R)-2,2-dichlorocyclopropyl)ethyl)-1^5-(2-methylpyrimidin-5-yl)-3,7-dioxo-1^1H-4^2,6-diaza-1(1,7)-indazola-4(2,5)-bicyclo[3.1.0]hexanacyclotridecaphane-4^3-carboxamide]	< 1000
CC(=O)c1nn2c3c(cc(-c4cnc(C)nc4)cc13)CCCCCCC(=O)NC[C@@]13C[C@@H](C(=O)N[C@@H](C)[C@H]4CC4(Cl)Cl)N(C(=O)C2)[C@@H]1C3 [Compound 30, (4^1R,4^3S,4^5R)-1^3-acetyl-N-((S)-1-((R)-2,2-dichlorocyclopropyl)ethyl)-1^5-(2-methylpyrimidin-5-yl)-3,7-dioxo-1^1H-4^2,6-diaza-1(1,7)-indazola-4(2,5)-bicyclo[3.1.0]hexanacyclotridecaphane-4^3-carboxamide]	< 1000
CC(=O)c1nn2c3c(cc(-c4cnc(C)nc4)cc13)CCCC[C@H](C)CC(=O)NC[C@@]13C[C@@H](C(=O)Nc4nc(C(F)(F)F)ccc4C)N(C(=O)C2)[C@@H]1C3 [Compound 31, (4^1R,4^3S,4^5R,9S)-1^3-acetyl-9-methyl-N-(3-methyl-6-(trifluoromethyl)pyridin-2-yl)-1^5-(2-methylpyrimidin-5-yl)-3,7-dioxo-1^1H-4^2,6-diaza-1(1,7)-indazola-4(2,5)-bicyclo[3.1.0]hexanacyclotridecaphane-4^3-carboxamide]	< 1000
CC(=O)c1nn2c3c(cc(-c4cnc(C)nc4)cc13)CCCCCCCNC[C@@]13C[C@@H](C(=O)Nc4nc(C(F)(F)F)ccc4C)N(C(=O)C2)[C@@H]1C3 [Compound 32, (4^1R,4^3S,4^5R)-1^3-acetyl-N-(3-methyl-6-(trifluoromethyl)pyridin-2-yl)-1^5-(2-methylpyrimidin-5-yl)-3-oxo-1^1H-4^2,6-diaza-1(1,7)-indazola-4(2,5)-bicyclo[3.1.0]hexanacyclotridecaphane-4^3-carboxamide]	< 1000
CC(=O)c1nn2c3c(cc(-c4cnc(C)nc4)cc13)CNC(=O)CCCCOC[C@@]13C[C@@H](C(=O)Nc4nc(C(F)(F)F)ccc4C)N(C(=O)C2)[C@@H]1C3 [Compound 33, (4^1R,4^3S,4^5S)-1^3-acetyl-N-(3-methyl-6-(trifluoromethyl)pyridin-2-yl)-1^5-(2-methylpyrimidin-5-yl)-3,11-dioxo-1^1H-6-oxa-4^2,12-diaza-1(1,7)-indazola-4(2,5)-bicyclo[3.1.0]hexanacyclotridecaphane-4^3-carboxamide]	< 1000
